Results on five compounds are retold here after ChEMBL document CHEMBL1147156, “Structure-based design and synthesis of N(omega)-nitro-L-arginine-containing peptidomimetics as selective inhibitors of neuronal nitric oxide synthase. Displacement of the heme structural water” (J Med Chem, 2007).

Assay [1] can be described thus: Inhibition of bovine recombinant neuronal NOS by hemoglobin capture assay. Further details: species or system Bos taurus.
In a further assay the target is T1, Nitric oxide synthase 3 (Bos taurus, UniProt P29473).
T1 sequence (P29473 whole entry): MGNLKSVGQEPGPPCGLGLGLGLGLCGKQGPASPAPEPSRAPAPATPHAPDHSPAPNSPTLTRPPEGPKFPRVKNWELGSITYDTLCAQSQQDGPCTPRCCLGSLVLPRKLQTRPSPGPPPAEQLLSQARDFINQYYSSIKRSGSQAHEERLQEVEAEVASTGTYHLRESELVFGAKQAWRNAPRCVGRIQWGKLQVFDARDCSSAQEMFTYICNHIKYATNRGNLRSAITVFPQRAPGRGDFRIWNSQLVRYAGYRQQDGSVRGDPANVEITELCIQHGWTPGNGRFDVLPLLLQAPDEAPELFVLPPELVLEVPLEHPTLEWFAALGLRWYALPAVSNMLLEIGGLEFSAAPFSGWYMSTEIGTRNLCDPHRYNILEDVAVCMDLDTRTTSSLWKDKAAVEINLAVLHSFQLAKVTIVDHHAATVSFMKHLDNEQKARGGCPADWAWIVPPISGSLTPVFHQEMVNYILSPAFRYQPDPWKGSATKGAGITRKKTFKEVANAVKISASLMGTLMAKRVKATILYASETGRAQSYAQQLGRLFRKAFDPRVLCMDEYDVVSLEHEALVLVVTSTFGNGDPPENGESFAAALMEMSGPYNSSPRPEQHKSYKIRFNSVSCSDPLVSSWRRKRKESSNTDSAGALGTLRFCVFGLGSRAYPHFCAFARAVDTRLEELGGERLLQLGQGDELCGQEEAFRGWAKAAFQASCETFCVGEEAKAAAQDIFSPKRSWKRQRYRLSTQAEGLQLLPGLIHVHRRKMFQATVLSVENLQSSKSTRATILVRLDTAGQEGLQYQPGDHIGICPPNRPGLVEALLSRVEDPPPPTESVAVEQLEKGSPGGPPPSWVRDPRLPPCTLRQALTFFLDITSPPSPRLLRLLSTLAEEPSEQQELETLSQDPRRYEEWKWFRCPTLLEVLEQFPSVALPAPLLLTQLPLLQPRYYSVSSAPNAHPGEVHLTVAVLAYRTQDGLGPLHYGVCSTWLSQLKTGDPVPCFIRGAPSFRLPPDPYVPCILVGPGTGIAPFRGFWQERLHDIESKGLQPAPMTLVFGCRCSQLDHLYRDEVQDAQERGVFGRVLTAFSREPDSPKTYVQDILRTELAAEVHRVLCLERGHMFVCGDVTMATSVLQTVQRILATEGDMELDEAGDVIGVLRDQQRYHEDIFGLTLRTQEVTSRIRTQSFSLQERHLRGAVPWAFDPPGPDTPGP
Briefly: Inhibition of bovine recombinant endothelial NOS by hemoglobin capture assay.

The target of assay [2] is T2, Nitric oxide synthase, inducible (Mus musculus, UniProt P29477).
T2 sequence (P29477 whole entry): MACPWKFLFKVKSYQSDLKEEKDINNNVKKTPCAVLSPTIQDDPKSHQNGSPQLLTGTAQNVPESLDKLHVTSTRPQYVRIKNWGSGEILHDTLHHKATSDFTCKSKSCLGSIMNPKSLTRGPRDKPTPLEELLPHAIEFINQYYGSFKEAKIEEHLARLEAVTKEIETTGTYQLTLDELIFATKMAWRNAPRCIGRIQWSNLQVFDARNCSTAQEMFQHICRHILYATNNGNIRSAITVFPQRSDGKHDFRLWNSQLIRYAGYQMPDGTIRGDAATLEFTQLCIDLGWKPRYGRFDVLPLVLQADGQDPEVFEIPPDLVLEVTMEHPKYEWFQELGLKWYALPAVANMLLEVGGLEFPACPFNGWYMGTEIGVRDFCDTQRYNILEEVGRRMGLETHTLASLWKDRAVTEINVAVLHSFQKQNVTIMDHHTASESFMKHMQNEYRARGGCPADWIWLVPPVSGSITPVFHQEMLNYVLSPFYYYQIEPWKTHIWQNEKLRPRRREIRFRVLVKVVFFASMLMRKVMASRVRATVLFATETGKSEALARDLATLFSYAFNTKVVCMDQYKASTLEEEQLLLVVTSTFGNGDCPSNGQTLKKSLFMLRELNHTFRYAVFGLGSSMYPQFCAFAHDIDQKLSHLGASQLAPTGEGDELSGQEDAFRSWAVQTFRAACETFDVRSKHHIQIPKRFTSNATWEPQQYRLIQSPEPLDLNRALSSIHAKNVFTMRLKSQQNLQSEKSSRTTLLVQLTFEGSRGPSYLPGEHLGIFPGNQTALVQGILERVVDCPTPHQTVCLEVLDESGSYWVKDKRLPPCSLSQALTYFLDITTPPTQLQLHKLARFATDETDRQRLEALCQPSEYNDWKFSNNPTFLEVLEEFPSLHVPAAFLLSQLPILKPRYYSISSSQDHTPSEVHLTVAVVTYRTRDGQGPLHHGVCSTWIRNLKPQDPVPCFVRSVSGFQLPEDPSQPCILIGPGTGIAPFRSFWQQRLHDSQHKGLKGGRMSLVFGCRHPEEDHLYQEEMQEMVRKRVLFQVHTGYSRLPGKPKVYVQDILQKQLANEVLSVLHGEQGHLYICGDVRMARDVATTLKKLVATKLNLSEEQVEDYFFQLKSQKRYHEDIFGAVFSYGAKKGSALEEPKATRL
Briefly: Inhibition of mouse recombinant inducible NOS by hemoglobin capture assay.

On to `NC(=O)[C@@H]1C[C@@H](NC(=O)[C@@H](N)CCC/N=C(\N)N[N+](=O)[O-])CN1`, for which the Ki in assay [1] was 0.33 µM.
`N=C(NCCC[C@H](N)CN(N)CCN)N[N+](=O)[O-]`: the Ki on Nitric oxide synthase 3 was 103 µM; in assay [2], 37 µM; in assay [1] it was 0.56 µM.
Taken in the same sequence, the figures for `N=C(NCCC[C@H](N)CN(O)CCN)N[N+](=O)[O-]` were 73 µM, 16 µM and 0.12 µM.
Take `N=C(NCCC[C@H](N)C(=O)N(O)[C@H]1CN[C@H](C(N)=O)C1)N[N+](=O)[O-]`: the inhibitory constant (Ki) is 35 µM on Nitric oxide synthase 3, 16 µM in assay [2] and 0.31 µM in assay [1].
As to `N=C(NCCC[C@H](N)C(=O)O)N[N+](=O)[O-]` [NITROARGININE], the Ki in assay [2] stood at 4.28 µM.
